Data taken from PMC8752738, “A propolis-derived small molecule ameliorates metabolic syndrome in obese mice by targeting the CREB/CRTC2 transcriptional complex” (Nature Communications, 2022).
Where “and” joins values, the source holds several entries; their conditions need not be identical. Equal entries are not always repeated. Entries after “also recorded” stand apart in the source; their conditions may differ.

What was measured:
[1] = system: primary hepatocytes; assay: MTT assay, primary hepatocytes; assay type: cell-based, mouse; settings: for Relative MTT absortance-48H, mean: n=5 (0 μM = 100); for Relative MTT absortance-48H: Supp. fig.3b, individual replicates
Protocol: Primary hepatocytes were exposed to APC at indicated concentrations for 48-h, then co-incubated with methyl thiazolyl tetrazolium (0.5 mg/mL in PBS, Sigma) solution for 5-h. After removing the solution, the purple crystals were dissolved using DMSO, and the absorbance was measured at 550 nm.

[2] = molecular target: T1, CREB-KID / CBP-KIX interaction (Homo sapiens, UniProt P16220); assay: Two-hybrid assay BD-CREB-KID / AD-CBP-KIX; assay type: cell-based; settings: HEK293T, 10 μM, 8-h
T1 construct: CBP-KIX and CREB-KID domains as determined by two-hybrid assay; expressed in transfected cells; host or cells: HEK293T
T1 sequence (P16220 87-146 limits assumed): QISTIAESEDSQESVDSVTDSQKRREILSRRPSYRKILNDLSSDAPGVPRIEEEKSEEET

[3] = Metabolic chamber assay; assay type: in vivo, mouse; settings: DIO ip APC; for AUC of RER, %, group mean: mean of APC group, N=4; for AUC of RER, % / RER of DIO: single animals
Protocol: Metabolic parameters of mice were determined using Columbus Instruments Comprehensive Lab Animal Monitoring System (CLAMS). The area unit under the curve (AUC) of respiratory exchange ratio (RER) and ambulatory activity (X-TOT) were calculated using Graphpad prism 8.0.

CC(C)=CCc1cc(C=CC(=O)O)cc(CC=C(C)C)c1O [APC, 3,5-diprenyl-4-hydroxycinnamic acid]
Relative MTT absortance-48H, mean ([1]; APC 1 μM): 102 | Relative MTT absortance-48H, mean ([1]; APC 5 μM): 103.2 | Relative MTT absortance-48H, mean ([1]; APC 25 μM): 101.9 | Relative MTT absortance-48H, mean ([1]; APC 100 μM): 105.7 | hepatocyte viability ([1]; APC up to 100 μM, 48-h): did not impair hepatocyte viability | Relative MTT absortance-48H ([1]; APC 1 uM): 101.3514 and 105.1051 and 97.5976 and 102.8529 (2×) | Relative MTT absortance-48H ([1]; APC 5 uM): 99.8499 and 98.3484 and 103.6036 and 105.1051 and 108.8589 | Relative MTT absortance-48H ([1]; APC 25 uM): 96.6066 and 104.3544 and 100.6006 and 99.6096 and 108.1081 | Relative MTT absortance-48H ([1]; APC 100 uM): 107.3574 and 101.1111 and 106.6066 and 109.6096 and 103.6036 | interaction of CBP-KIX and CREB-KID domains (two-hybrid) [2]: little effect; also recorded: neither APC nor A57 reduced | AUC of RER, %, group mean ([3]; Dark): 65.31% | AUC of RER, %, group mean ([3]; Light): 53.9% | AUC of RER, % ([3]; Light): 54.07% and 52.83% and 53.85% and 54.85% | RER of DIO, column mean over the RER curve ([3]; Mean of APC, 70 intervals, 4 animals): 0.8038 | AUC of RER, %, column mean over total, light and dark ([3]; Mean of APC, two-way RM ANOVA): 79.47% | AUC of RER, %, group mean ([3]; Total): 119.2% | AUC of RER, % ([3]; Total): 125.06% and 111.68% and 115.24% and 124.86% | AUC of RER, % ([3]; dark): 70.99% and 58.85% and 61.39% and 70.01% | RER of DIO ([3]; interval 1, hour 0): 0.728 and 0.729 (2×) and 0.733 | RER of DIO ([3]; interval 2, hour 0.7): 0.795 and 0.774 and 0.72 and 0.734 | RER of DIO ([3]; interval 3, hour 1.1): 0.732 and 0.773 and 0.726 and 0.735 | RER of DIO ([3]; interval 4, hour 1.5): 0.747 and 0.761 and 0.73 and 0.738 | RER of DIO ([3]; interval 5, hour 1.8): 0.78 and 0.778 and 0.722 and 0.754 | RER of DIO ([3]; interval 6, hour 2.2): 0.747 and 0.794 and 0.723 and 0.738 | RER of DIO ([3]; interval 7, hour 2.6): 0.764 and 0.792 and 0.716 and 0.758 | RER of DIO ([3]; interval 8, hour 2.9): 0.779 and 0.804 and 0.705 and 0.738 | RER of DIO ([3]; interval 9, hour 3.3): 0.766 and 0.82 and 0.724 and 0.727 | RER of DIO ([3]; interval 10, hour 3.7): 0.818 and 0.814 and 0.729 and 0.75 | RER of DIO ([3]; interval 11, hour 4.0): 0.78 and 0.803 and 0.732 and 0.733 | RER of DIO ([3]; interval 12, hour 4.4): 0.735 and 0.792 and 0.714 and 0.756 | RER of DIO ([3]; interval 13, hour 4.8): 0.768 and 0.812 and 0.743 and 0.781 | RER of DIO ([3]; interval 14, hour 5.1): 0.759 and 0.799 and 0.716 and 0.757 | RER of DIO ([3]; interval 15, hour 5.5): 0.769 and 0.778 and 0.775 and 0.742 | RER of DIO ([3]; interval 16, hour 5.9): 0.783 and 0.804 and 0.718 and 0.774 | RER of DIO ([3]; interval 17, hour 6.2): 0.75 and 0.77 and 0.709 and 0.78 | RER of DIO ([3]; interval 18, hour 6.6): 0.801 and 0.79 and 0.715 and 0.767 | RER of DIO ([3]; interval 19, hour 7.0): 0.759 and 0.797 and 0.758 and 0.785 | RER of DIO ([3]; interval 20, hour 7.3): 0.769 and 0.747 and 0.713 and 0.758 | RER of DIO ([3]; interval 21, hour 7.7): 0.841 and 0.78 and 0.749 and 0.771 | RER of DIO ([3]; interval 22, hour 8.1): 0.782 and 0.771 and 0.743 and 0.797 | RER of DIO ([3]; interval 23, hour 8.4): 0.804 and 0.814 and 0.781 and 0.79 | RER of DIO ([3]; interval 24, hour 8.8): 0.838 and 0.788 and 0.764 and 0.822 | RER of DIO ([3]; interval 25, hour 9.2): 0.844 and 0.798 and 0.804 and 0.842 | RER of DIO ([3]; interval 26, hour 9.5): 0.809 and 0.808 and 0.794 and 0.831 | RER of DIO ([3]; interval 27, hour 9.9): 0.818 and 0.808 and 0.792 and 0.849 | RER of DIO ([3]; interval 28, hour 10.3): 0.832 and 0.843 and 0.84 and 0.846 | RER of DIO ([3]; interval 29, hour 10.6): 0.841 and 0.824 and 0.818 and 0.858 | RER of DIO ([3]; interval 30, hour 11.0): 0.821 and 0.847 and 0.832 (2×) | RER of DIO ([3]; interval 31, hour 11.4): 0.844 and 0.835 and 0.841 and 0.829 | RER of DIO ([3]; interval 32, hour 11.7): 0.827 and 0.833 and 0.828 and 0.825 | RER of DIO ([3]; interval 33, hour 12.1): 0.841 and 0.831 and 0.816 (2×) | RER of DIO ([3]; interval 34, hour 12.5): 0.864 and 0.863 and 0.842 and 0.837 | RER of DIO ([3]; interval 35, hour 12.8): 0.866 and 0.842 and 0.843 and 0.836 | RER of DIO ([3]; interval 36, hour 13.2): 0.891 and 0.836 and 0.797 and 0.825 | RER of DIO ([3]; interval 37, hour 13.6): 0.88 and 0.869 and 0.798 and 0.846 | RER of DIO ([3]; interval 38, hour 13.9): 0.846 and 0.848 and 0.837 and 0.814 | RER of DIO ([3]; interval 39, hour 14.3): 0.854 and 0.82 and 0.839 and 0.825 | RER of DIO ([3]; interval 40, hour 14.7): 0.86 and 0.846 and 0.828 and 0.83
